Experimental data from publication PMC4310556, “Radiosynthesis and in Vivo Evaluation of Two PET Radioligands for Imaging α-Synuclein” (Applied sciences (Basel, Switzerland), 2014).
Where “and” joins values, the source holds several entries; their conditions need not be identical. Equal entries are not always repeated.

Columns and labels:
[1] = Ex vivo biodistribution in rats; set-up: species or system Sprague-Dawley rats; conditions: for Blood-brain barrier penetration: ex vivo rat biodistribution; for Biodistribution, blood / Biodistribution, bone / Biodistribution, brain (total brain uptake) / Biodistribution, fat / Biodistribution, heart / Biodistribution, kidney / Biodistribution, liver / Biodistribution, lung / Biodistribution, muscle / Biodistribution, pancreas / Biodistribution, spleen: male Sprague-Dawley rats, i.v. tail vein, n = 4; for Distribution of radioactivity in brain regions: rat brain regions, Figure 2
Description: All animal experiments were conducted in compliance with the Guidelines for the Care and Use of Research Animals under protocols approved by Washington University's Animal Studies Committee. […] Group of rats (n = 4) were used for each time point. […] The whole brain was quickly removed and dissected into segments consisting of brain stem, thalamus, striatum, hippocampus, cortex and cerebellum. The remainder of the brain was also collected to determine total brain uptake. […] Tissues were weighed, and the percent injected dose (%ID)/gram for each tissue was calculated.

[2] = MicroPET brain imaging in cynomolgus macaque; format: in vivo
Description: Before each scan (n = 2), the animal was fasted for 12 h and then initially anesthetized with ketamine (10 mg/kg) and glycopyrrolate (0.13 mg/kg) intramuscularly. Upon arrival at the scanner, the monkey was intubated, and a percutaneous catheter placed for tracer injection. The head was positioned supine in the adjustable head holder with the brain in the center of the field of view. Anesthesia was maintained at 0.75%–2.0% isoflurane/oxygen and the core temperature maintained at 37 °C. A 10-min transmission scan was performed to confirm positioning; this was followed by a 45-min transmission scan for attenuation correction.

[3] = healthy cynomolgus macaque, microPET

With `O=[N+]([O-])c1ccc2c(c1)Sc1cc(OCC[18F])ccc1N2` [[^18F]2b] the Blood-brain barrier penetration [1] was “crossed the blood-brain barrier (BBB)”, the “Biodistribution, blood” value ([1]; 5 min post injection) was 0.553 ± 0.047 %ID/gram and the “Biodistribution, bone” value ([1]; 5 min post injection) was 0.340 ± 0.027 %ID/gram. The “Biodistribution, brain (total brain uptake)” value (shortened to “Biodistribution, brain”) ([1]; 5 min post injection) was 0.758 ± 0.013 %ID/gram, the “Biodistribution, fat” value ([1]; 5 min post injection) was 0.255 ± 0.037 %ID/gram and the “Biodistribution, heart” value ([1]; 5 min post injection) was 0.757 ± 0.033 %ID/gram. For the same molecule, the “Biodistribution, kidney” value ([1]; 5 min post injection) was 1.070 ± 0.058 %ID/gram, the “Biodistribution, liver” value ([1]; 5 min post injection) was 1.626 ± 0.221 %ID/gram and the “Biodistribution, lung” value ([1]; 5 min post injection) was 0.833 ± 0.053 %ID/gram. The “Biodistribution, muscle” value ([1]; 5 min post injection) was 0.430 ± 0.031 %ID/gram, the “Biodistribution, pancreas” value ([1]; 5 min post injection) was 1.004 ± 0.147 %ID/gram and the “Biodistribution, spleen” value ([1]; 5 min post injection) was 0.672 ± 0.064 %ID/gram. The “Biodistribution, blood” value ([1]; 30 min post injection) was 0.589 ± 0.016 %ID/gram, the “Biodistribution, bone” value ([1]; 30 min post injection) was 0.309 ± 0.020 %ID/gram and the “Biodistribution, brain” value ([1]; 30 min post injection) was 0.465 ± 0.018 %ID/gram. For the same molecule, the “Biodistribution, fat” value ([1]; 30 min post injection) was 0.425 ± 0.023 %ID/gram, the “Biodistribution, heart” value ([1]; 30 min post injection) was 0.505 ± 0.015 %ID/gram and the “Biodistribution, kidney” value ([1]; 30 min post injection) was 0.988 ± 0.090 %ID/gram. For the same molecule, the “Biodistribution, liver” value ([1]; 30 min post injection) was 0.847 ± 0.027 %ID/gram, the “Biodistribution, lung” value ([1]; 30 min post injection) was 0.561 ± 0.021 %ID/gram and the “Biodistribution, muscle” value ([1]; 30 min post injection) was 0.451 ± 0.018 %ID/gram. For the same molecule, the “Biodistribution, pancreas” value ([1]; 30 min post injection) was 0.546 ± 0.068 %ID/gram, the “Biodistribution, spleen” value ([1]; 30 min post injection) was 0.509 ± 0.022 %ID/gram and the “Biodistribution, blood” value ([1]; 60 min post injection) was 0.606 ± 0.035 %ID/gram. The “Biodistribution, bone” value ([1]; 60 min post injection) was 0.407 ± 0.043 %ID/gram, the “Biodistribution, brain” value ([1]; 60 min post injection) was 0.410 ± 0.030 %ID/gram and the “Biodistribution, fat” value ([1]; 60 min post injection) was 0.371 ± 0.067 %ID/gram. For the same molecule, the “Biodistribution, heart” value ([1]; 60 min post injection) was 0.466 ± 0.040 %ID/gram, the “Biodistribution, kidney” value ([1]; 60 min post injection) was 0.678 ± 0.032 %ID/gram and the “Biodistribution, liver” value ([1]; 60 min post injection) was 0.561 ± 0.028 %ID/gram. The “Biodistribution, lung” value ([1]; 60 min post injection) was 0.491 ± 0.030 %ID/gram, the “Biodistribution, muscle” value ([1]; 60 min post injection) was 0.376 ± 0.019 %ID/gram and the “Biodistribution, pancreas” value ([1]; 60 min post injection) was 0.409 ± 0.029 %ID/gram. The “Biodistribution, spleen” value ([1]; 60 min post injection) was 0.446 ± 0.038 %ID/gram, the “Biodistribution, blood” value ([1]; 120 min post injection) was 0.585 ± 0.046 %ID/gram and the “Biodistribution, bone” value ([1]; 120 min post injection) was 0.644 ± 0.071 %ID/gram. For the same molecule, the “Biodistribution, brain” value ([1]; 120 min post injection) was 0.359 ± 0.016 %ID/gram, the “Biodistribution, fat” value ([1]; 120 min post injection) was 0.293 ± 0.048 %ID/gram and the “Biodistribution, heart” value ([1]; 120 min post injection) was 0.410 ± 0.030 %ID/gram. For the same molecule, the “Biodistribution, kidney” value ([1]; 120 min post injection) was 0.659 ± 0.027 %ID/gram, the “Biodistribution, liver” value ([1]; 120 min post injection) was 0.467 ± 0.023 %ID/gram and the “Biodistribution, lung” value ([1]; 120 min post injection) was 0.436 ± 0.018 %ID/gram. The “Biodistribution, muscle” value ([1]; 120 min post injection) was 0.315 ± 0.015 %ID/gram, the “Biodistribution, pancreas” value ([1]; 120 min post injection) was 0.330 ± 0.021 %ID/gram and the “Biodistribution, spleen” value ([1]; 120 min post injection) was 0.398 ± 0.019 %ID/gram. The “Distribution of radioactivity in brain regions” value [1] was “homogeneous distribution in the brain regions” and the “In vivo defluorination (bone uptake)” value ([1]; rats, bone uptake up to 120 min) was “no defluorination was observed”.
With `[11CH3]Oc1ccc2c(c1)Sc1cc([N+](=O)[O-])ccc1N2` [[^11C]2a] the Blood-brain barrier penetration [1] was “crossed the blood-brain barrier (BBB)”, the “Biodistribution, blood” value ([1]; 5 min post injection) was 0.506 ± 0.040 %ID/gram and the “Biodistribution, brain” value ([1]; 5 min post injection) was 0.953 ± 0.115 %ID/gram. The “Biodistribution, fat” value ([1]; 5 min post injection) was 0.155 ± 0.023 %ID/gram, the “Biodistribution, heart” value ([1]; 5 min post injection) was 0.758 ± 0.052 %ID/gram and the “Biodistribution, kidney” value ([1]; 5 min post injection) was 1.362 ± 0.054 %ID/gram. The “Biodistribution, liver” value ([1]; 5 min post injection) was 2.198 ± 0.111 %ID/gram, the “Biodistribution, lung” value ([1]; 5 min post injection) was 1.149 ± 0.058 %ID/gram and the “Biodistribution, muscle” value ([1]; 5 min post injection) was 0.271 ± 0.005 %ID/gram. The “Biodistribution, pancreas” value ([1]; 5 min post injection) was 1.007 ± 0.262 %ID/gram, the “Biodistribution, spleen” value ([1]; 5 min post injection) was 0.659 ± 0.049 %ID/gram and the “Biodistribution, blood” value ([1]; 30 min post injection) was 0.369 ± 0.031 %ID/gram. The “Biodistribution, brain” value ([1]; 30 min post injection) was 0.287 ± 0.046 %ID/gram, the “Biodistribution, fat” value ([1]; 30 min post injection) was 0.241 ± 0.042 %ID/gram and the “Biodistribution, heart” value ([1]; 30 min post injection) was 0.377 ± 0.046 %ID/gram. For the same molecule, the “Biodistribution, kidney” value ([1]; 30 min post injection) was 0.807 ± 0.086 %ID/gram, the “Biodistribution, liver” value ([1]; 30 min post injection) was 1.349 ± 0.116 %ID/gram and the “Biodistribution, lung” value ([1]; 30 min post injection) was 0.740 ± 0.038 %ID/gram. For the same molecule, the “Biodistribution, muscle” value ([1]; 30 min post injection) was 0.325 ± 0.030 %ID/gram, the “Biodistribution, pancreas” value ([1]; 30 min post injection) was 0.506 ± 0.066 %ID/gram and the “Biodistribution, spleen” value ([1]; 30 min post injection) was 0.400 ± 0.052 %ID/gram. The “Biodistribution, blood” value ([1]; 60 min post injection) was 0.300 ± 0.015 %ID/gram, the “Biodistribution, brain” value ([1]; 60 min post injection) was 0.158 ± 0.014 %ID/gram and 0.158 ± 0.013 %ID/gram and the “Biodistribution, fat” value ([1]; 60 min post injection) was 0.293 ± 0.076 %ID/gram. For the same molecule, the “Biodistribution, heart” value ([1]; 60 min post injection) was 0.245 ± 0.010 %ID/gram, the “Biodistribution, kidney” value ([1]; 60 min post injection) was 0.559 ± 0.053 %ID/gram and the “Biodistribution, liver” value ([1]; 60 min post injection) was 1.116 ± 0.024 %ID/gram. The “Biodistribution, lung” value ([1]; 60 min post injection) was 0.485 ± 0.036 %ID/gram, the “Biodistribution, muscle” value ([1]; 60 min post injection) was 0.199 ± 0.016 %ID/gram and the “Biodistribution, pancreas” value ([1]; 60 min post injection) was 0.522 ± 0.036 %ID/gram. For the same molecule, the “Biodistribution, spleen” value ([1]; 60 min post injection) was 0.386 ± 0.027 %ID/gram, the “Distribution of radioactivity in brain regions” value [1] was “homogeneous distribution in the brain regions” and the “Time of peak brain uptake post-injection (time-activity curve)” value ([2]; healthy adult male cynomolgus macaque, i.v., microPET) was 3 min. The Blood-brain barrier penetration [2, 3] was “able to cross the BBB”, the Brain washout kinetics [2, 3] was “fast washout kinetics from the brain regions” and the “Distribution of radioactivity in the brain” value ([2]; healthy cynomolgus macaque, summed image 0-120 min) was “homogeneous distribution of radioactivity in the brain”.
